{"source": "paper PMC9181852", "about": "“In Vivo and In Vitro Biological Evaluation and Molecular Docking Studies of Compounds Isolated from Micromeria biflora (Buch. Ham. ex D.Don) Benth” (Molecules, 2022)", "key": {"Hot plate analgesic test": {"test": "Hot plate analgesic test", "format": "in vivo, mice (Balb/c)", "protocol": "(§1) Healthy mice (Balb/c) with weight ranging from 20 to 22 g and ages 9 to 10 weeks were used in this screening model. The grown animals were provided with standard laboratory conditions such as standard food and water ad libitum. The in vivo biological screening test was performed at the Department of Veterinary Medicine, College of Agriculture and Veterinary Medicine, Qassim University Buraydah, Saudi Arabia, as well as Swabi University, KP, Pakistan, according to published procedures.\nThe analgesic effect of salicylalazine isolated from M. biflora was obtained with help of a hot plate according to the published method. The animals were distributed into different groups according to the previously reported method. A preliminary screening test was performed on the animals using a hot plate (Harvard apparatus) sustained at 55 ± 2 °C. […] Group I (positive control) was administered with the standard drug, while Group II (negative control) was administered with normal saline. The other groups of animals were administered with 2.5, 5, 10, 15, and 20 mg/kg (PO). […] To avoid tissue damage, a cut-off time of 30 s was used for every animal. The latency time was recorded for all groups (n = 6) at consistent intervals (30, 60, 90, and 120 min)."}, "[1]": {"test": "Traction muscle relaxation model", "format": "in vivo, mice (Balb/c)", "protocol": "as §1\nA traction screening model was adapted to identify the relaxation of muscle for salicylalazine isolated from M. biflora according to the standard method. The traction model was considered by using metallic wires covered with rubber, and then the wires were linked with each other using a stand around 60 cm upstairs of the lab bench. The animals were distributed into different groups, with each group comprising six animals (n = 6). The various groups of animals were administered water, diazepam, and salicylalazine at different doses. After administration, all groups of animals were subjected to traction screening after 30, 60, and 90 min. […] Traction testing was repeatedly performed to calculate the muscle relaxant ability of salicylalazine as per the reported method."}, "Open field sedative test": {"test": "Open field sedative test", "format": "in vivo, mice (Balb/c)", "settings": "30 min after administration", "protocol": "as §1\nThe sedative potential of salicylalazine isolated from M. biflora was assessed as per the reported procedure. The animals were divided into different groups, as designated above. The apparatuses used in this screening contained an area of white wood with a 150 cm diameter bordered by stainless steel walls and was separated into 19 squares by black lines. Then, the open field apparatus was positioned inside the light and sound-reduced room. The different groups of animals were administered distilled water, diazepam, and salicylalazine at different doses. Thirty minutes after administration, all groups of animals were permitted to move from the center of the design box. […] Statistical calculations were performed by counting the number of lines crossed by every animal."}, "[2]": {"test": "Carrageenan-induced paw edema", "format": "in vivo, mice", "protocol": "as §1\nThis model was used to identify the anti-inflammatory potency of salicylalazine purified from M. biflora according to the standard method. The animals were randomly distributed into different groups depending on the treatment. Group I was treated with distilled water (10 mL/kg), which acted as a negative control. […] After 30 min of the intraperitoneal subjection of the mentioned administrations, 1% carrageen (0.05 mL) was […] administrated in the right paw of each animal. The inflammation in every animal was recoded after 1–5 h of carrageenan treatment using a plethysmometer (LE 7500 plan lab S.L). The anti-inflammatory action of salicylalazine was measured using the following formula: Activity %=A−B /A×100 where A is the paw edema of the control group, and B is the paw edema of the screening group."}, "A498": {"system": "A498", "test": "Anticancer MTT assay, A498", "format": "cell-based", "settings": "Homo sapiens, 24 h", "protocol": "The MTT assay was used to assess the cytotoxicity of salicylalazine isolated from M. biflora as per the previously documented method. For the MTT assay, Gibco BRL was combined with 100 µg/mL of penicillin sodium salts, 10% FBS (Gibco), and sodium carbonate (2 mg/mL). The prepared medium was used to keep three human cancer cell lines: human hepatoma (HepG2), human A498, and renal NCI-h226 non-small cell lung). Mouse hepatocytes, including HepG2 and HepG-R, were planted in 96-well plates. The cell lines were preserved with salicylalazine (1.5–100 μM), hatched for 24 h, and then they were tracked using the MTT procedure^14. This method was used for all tested cell lines. The IC50 value of salicylalazine in different cell lines was calculated from the concentration-effect curves. The standard drug used in this experiment was paclitaxel."}, "MDR2780AD": {"system": "MDR2780AD", "test": "Anticancer MTT assay, MDR2780AD", "format": "cell-based", "settings": "24 h"}, "mouse hepatocytes": {"system": "mouse hepatocytes", "test": "Cytotoxicity MTT assay, mouse hepatocytes", "format": "cell-based", "protocol": "Salicylalazine isolated from M. biflora was also screened for in vitro cytotoxicity using mouse hepatocytes and LCMK-2 monkey kidney cells. According to the MTT assay, salicylalazine was incubated for 24 h and the viability of the cell was identified. In this screening test, the cells were kept in RPMI 1640 medium as per the reported method. The medium used in this experiment consisted of streptomycin sulfate, NaHCO3 solution, and penicillin sodium salt, and FBS in proper proportion. The initial seeding of 8.6 × 10^3 mice hepatocytes and 7.1 × 10^3 LCMK-2 cells was indicated in 96 well plates. The cells were preserved with salicylalazine at different concentrations, and vehicle (0.2% DMSO), and hatching was performed for […] by MTT following our previously reported method."}, "COX-1": {"molecular_target": "COX-1 (Homo sapiens, UniProt P23219)", "sequence (P23219 24-599)": "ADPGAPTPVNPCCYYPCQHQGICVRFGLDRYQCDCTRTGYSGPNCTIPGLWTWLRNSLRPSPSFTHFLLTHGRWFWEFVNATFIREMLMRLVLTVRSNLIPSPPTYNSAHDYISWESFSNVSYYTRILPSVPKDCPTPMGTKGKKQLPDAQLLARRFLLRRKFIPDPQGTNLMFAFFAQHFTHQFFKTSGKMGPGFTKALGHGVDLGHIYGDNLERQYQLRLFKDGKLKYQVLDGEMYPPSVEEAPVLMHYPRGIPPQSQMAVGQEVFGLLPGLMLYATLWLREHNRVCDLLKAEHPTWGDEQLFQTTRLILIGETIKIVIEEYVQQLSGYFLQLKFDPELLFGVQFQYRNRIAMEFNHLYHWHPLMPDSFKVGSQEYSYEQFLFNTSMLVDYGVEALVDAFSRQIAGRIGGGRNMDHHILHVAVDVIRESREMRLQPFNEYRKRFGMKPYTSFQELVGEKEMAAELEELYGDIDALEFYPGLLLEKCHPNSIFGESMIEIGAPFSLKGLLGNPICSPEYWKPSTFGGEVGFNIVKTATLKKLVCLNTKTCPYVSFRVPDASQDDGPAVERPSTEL", "test": "In vitro COX-1 inhibition (screening kit)", "method": "The in vitro inhibition of cyclooxygenases (COX-1 and COX-2) by the isolated compounds was determined using screening kits."}}, "data": [{"smiles": "Oc1ccccc1/C=N/N=C/c1ccccc1O", "note": "[Salicylalazine, salicylalazine]", "values": [{"measurement": "Latency time on hot plate", "setting": "Hot plate analgesic test; dose 2.5 mg/kg, 30 min", "result": "13.33 ± 0.55", "unit": "s"}, {"measurement": "Latency time on hot plate", "setting": "Hot plate analgesic test; dose 2.5 mg/kg, 60 min", "result": "14.40 ± 0.83", "unit": "s"}, {"measurement": "Latency time on hot plate", "setting": "Hot plate analgesic test; dose 2.5 mg/kg, 90 min", "result": "14.33 ± 0.64", "unit": "s"}, {"measurement": "Latency time on hot plate", "setting": "Hot plate analgesic test; dose 2.5 mg/kg, 120 min", "result": "14.01 ± 0.43", "unit": "s"}, {"measurement": "Latency time on hot plate", "setting": "Hot plate analgesic test; dose 5 mg/kg, 30 min", "result": "15.12 ± 0.80", "unit": "s"}, {"measurement": "Latency time on hot plate", "setting": "Hot plate analgesic test; dose 5 mg/kg, 60 min", "result": "18.09 ± 0.69", "unit": "s"}, {"measurement": "Latency time on hot plate", "setting": "Hot plate analgesic test; dose 5 mg/kg, 90 min", "result": "18.03 ± 0.90", "unit": "s"}, {"measurement": "Latency time on hot plate", "setting": "Hot plate analgesic test; dose 5 mg/kg, 120 min", "result": "17.97 ± 1.00", "unit": "s"}, {"measurement": "Latency time on hot plate", "setting": "Hot plate analgesic test; dose 10 mg/kg, 30 min", "result": "18.65 ± 0.95", "unit": "s"}, {"measurement": "Latency time on hot plate", "setting": "Hot plate analgesic test; dose 10 mg/kg, 60 min", "result": "20.89 ± 0.90", "unit": "s"}, {"measurement": "Latency time on hot plate", "setting": "Hot plate analgesic test; dose 10 mg/kg, 90 min", "result": "20.77 ± 0.87", "unit": "s"}, {"measurement": "Latency time on hot plate", "setting": "Hot plate analgesic test; dose 10 mg/kg, 120 min", "result": "19.97 ± 0.80", "unit": "s"}, {"measurement": "Latency time on hot plate", "setting": "Hot plate analgesic test; dose 15 mg/kg, 30 min", "result": "21.43 ± 0.50", "unit": "s"}, {"measurement": "Latency time on hot plate", "setting": "Hot plate analgesic test; dose 15 mg/kg, 60 min", "result": "22.89 ± 0.80", "unit": "s"}, {"measurement": "Latency time on hot plate", "setting": "Hot plate analgesic test; dose 15 mg/kg, 90 min", "result": "22.00 ± 0.98", "unit": "s"}, {"measurement": "Latency time on hot plate", "setting": "Hot plate analgesic test; dose 15 mg/kg, 120 min", "result": "21.65 ± 0.98", "unit": "s"}, {"measurement": "Latency time on hot plate", "setting": "Hot plate analgesic test; dose 20 mg/kg, 30 min", "result": "23.00 ± 0.44", "unit": "s"}, {"measurement": "Latency time on hot plate", "setting": "Hot plate analgesic test; dose 20 mg/kg, 60 min", "result": "23.90 ± 0.97", "unit": "s"}, {"measurement": "Latency time on hot plate", "setting": "Hot plate analgesic test; dose 20 mg/kg, 90 min", "result": "22.80 ± 1.05", "unit": "s"}, {"measurement": "Latency time on hot plate", "setting": "Hot plate analgesic test; dose 20 mg/kg, 120 min", "result": "22.79 ± 1.09", "unit": "s"}, {"measurement": "Traction Test (%)", "setting": "[1]; dose 2.5 mg/kg, 30 min", "result": "21.23 ± 1.55", "unit": "%"}, {"measurement": "Traction Test (%)", "setting": "[1]; dose 2.5 mg/kg, 60 min", "result": "27.78 ± 2.10", "unit": "%"}, {"measurement": "Traction Test (%)", "setting": "[1]; dose 2.5 mg/kg, 90 min", "result": "28.65 ± 1.02", "unit": "%"}, {"measurement": "Traction Test (%)", "setting": "[1]; dose 5 mg/kg, 30 min", "result": "28.12 ± 1.60", "unit": "%"}, {"measurement": "Traction Test (%)", "setting": "[1]; dose 5 mg/kg, 60 min", "result": "34.56 ± 2.07", "unit": "%"}, {"measurement": "Traction Test (%)", "setting": "[1]; dose 5 mg/kg, 90 min", "result": "35.34 ± 2.00", "unit": "%"}, {"measurement": "Traction Test (%)", "setting": "[1]; dose 10 mg/kg, 30 min", "result": "34.99 ± 1.70", "unit": "%"}, {"measurement": "Traction Test (%)", "setting": "[1]; dose 10 mg/kg, 60 min", "result": "39.45 ± 2.12", "unit": "%"}, {"measurement": "Traction Test (%)", "setting": "[1]; dose 10 mg/kg, 90 min", "result": "40.66 ± 1.88", "unit": "%"}, {"measurement": "Traction Test (%)", "setting": "[1]; dose 15 mg/kg, 30 min", "result": "45.78 ± 1.88", "unit": "%"}, {"measurement": "Traction Test (%)", "setting": "[1]; dose 15 mg/kg, 60 min", "result": "52.98 ± 2.15", "unit": "%"}, {"measurement": "Traction Test (%)", "setting": "[1]; dose 15 mg/kg, 90 min", "result": "52.32 ± 2.04", "unit": "%"}, {"measurement": "Traction Test (%)", "setting": "[1]; dose 20 mg/kg, 30 min", "result": "53.72 ± 1.89", "unit": "%"}, {"measurement": "Traction Test (%)", "setting": "[1]; dose 20 mg/kg, 60 min", "result": "60.56 ± 2.13", "unit": "%"}, {"measurement": "Traction Test (%)", "setting": "[1]; dose 20 mg/kg, 90 min", "result": "61.32 ± 2.06", "unit": "%"}, {"measurement": "No of Lines Crossed", "setting": "Open field sedative test; dose 2.5 mg/kg", "result": "78.54 ± 0.98"}, {"measurement": "No of Lines Crossed", "setting": "Open field sedative test; dose 5 mg/kg", "result": "69.98 ± 1.22"}, {"measurement": "No of Lines Crossed", "setting": "Open field sedative test; dose 10 mg/kg", "result": "60.90 ± 1.00"}, {"measurement": "No of Lines Crossed", "setting": "Open field sedative test; dose 15 mg/kg", "result": "51.09 ± 0.97"}, {"measurement": "No of Lines Crossed", "setting": "Open field sedative test; dose 20 mg/kg", "result": "40.98 ± 0.80"}, {"measurement": "Attenuation of carrageenan-induced paw edema (maximum)", "setting": "[2]; 15 mg/kg, after 3 h", "result": 80.98, "unit": "%"}, {"measurement": "Inhibition of carrageenan-induced paw edema (maximum)", "setting": "[2]; 20 mg/kg, 3 h after carrageenan", "result": 90.22, "unit": "%"}, {"measurement": "Inhibition of carrageenan-induced paw edema", "setting": "[2]; 20 mg/kg, after 1 h", "result": 45.11, "unit": "%"}, {"measurement": "IC50", "setting": "A498", "result": "115.5 ± 0.42", "unit": "µM"}, {"measurement": "IC50", "setting": "MDR2780AD", "result": "0.85 ± 0.09", "unit": "µM"}, {"measurement": "In vitro cytotoxicity (MTT)", "setting": "mouse hepatocytes", "result": "did not exhibit any considerable cytotoxicity"}, {"measurement": "IC50", "setting": "COX-1", "result": "44.1 ± 1.18", "unit": "µM"}]}]}
